Legend:
Assay type in all cases: biochemical
[1] = tested on: Factor IX deficient plasma; assay: relative coagulant activity of factor IX proteins (zymogens); details: for relative coagulant activity: factor IX proteins before activation, IXNP = 100%
Source text: The following reagents were used. Benzoyl-Ile-Glu-Gly-Arg-p-nitroanilide (SEQ ID NO: 17) (S-2222) was purchased from Helena Laboratories. Dansyl-Glu-Gly-Arg-chloromethyl ketone (DEGR-ck) was obtained from Calbiochem. Phosphatidylcholine, phosphatidylserine, recombinant hirudin, and fatty acid free bovine serum albumin (BSA) were obtained from Sigma Chemical Co. Factor IX and factor VIII deficient plasmas were purchased from George King Biomedicals and aPTT reagent was obtained from Diagnostica Stago. Normal human plasma factor IX (IXNP) and factor X were isolated as described in Bajaj and Birktoft, 1993, Methods Enzymol. 222, 96–128, and factor Xa was prepared as described in Bajaj et al., 1981, Prep. Biochem. 11, 397–412. Purified human factor XIa, protein C, activated protein C, and α-thrombin (IIa) were purchased from Enzyme Research Laboratories (South Bend, Ind.). Recombinant human tissue factor of aa 1–243 containing the transmembrane domain was generously provided by Genentech Inc. (South San Francisco, Calif.) and reconstituted as described in Sabharwal et al., 1995, J. Biol. Chem. 270, 15523–15530. Phosphatidylcholine-phosphatidylserine vesicles (75% phosphatidylcholine, 25% phosphatidylserine) were prepared by the method of Husten et al., 1987, J. Biol. Chem. 262, 12953–12966 as outlined in Sabharwal et al (Id.). Recombinant human factor VIIa was a generous gift of Novo-Nordisk (Copenhagen). Purified human factor VIII was obtained from Dr. Leon Hoyer (American Red Cross, Rockville, Md.). The preparation was free of all other coagulation factors and contained human albumin as a stabilizing agent. Purification of a mouse monoclonal antibody (mAb) that inhibits the interaction of factor IXa with factor VIIIa was as described in Bajaj et al., 1985, J. Biol. Chem. 260:11574–11580. […]

[2] = tested on: Factor IX deficient plasma; assay: coagulant activity of XIa-activated IXa proteins
[3] = target: T1, factor X (Homo sapiens, UniProt P00742); assay: factor X activation in complete intrinsic Tenase system (IXa, Ca2+, phospholipid, VIIIa); parameters: Normal human plasma factor IX (IXNP) and factor X were isolated as described in Bajaj and Birktoft; from tissue; host or cells: human plasma (factor X); factor VIII obtained from Dr. Leon Hoyer, American Red Cross; details: phospholipid present; for rate of factor X activation at increased VIIIa: VIIIa increased from 70 pM to 14 nM
Procedure: (§1) The ability of each activated mutant to activate factor X in the presence and absence of phospholipid and factor VIIIa was determined as follows. The activation was carried out at 37° C. in a 50 μl reaction volume, in TBS/BSA pH 7.4, for various time periods. At the end of the incubation time period, each reaction mixture received 1 μl of 0.5 M EDTA to stop further generation of factor Xa. A 40 μL aliquot was then added to 0.1 ml quartz cuvette containing S-2222 in 75 μL of TBS/BSA, pH 7.4. The final concentration of S-2222 was 100 μM. The p-nitroaniline release was measured continuously (ΔA405/min) for up to 20 min (Sabharwal et al., 1995 supra; Sabharwal et al., 1997, supra). Factor Xa generated was calculated from a standard curve constructed using factor Xa prepared from insolubilized Russell's viper venom.
(§2) Factor X activation measurements were made under four experimental regimes. In one, Ca^2+ and phospholipid were present. In this system activation was carried out for 5–15 minutes and the concentration of each IXa protein was 20 nM, phospholipid was 25 μM, and factor X was 100 nM. In the second regime, Ca^2+, phospholipid and factor VIIIa were present. […] In the third regime, only Ca^2+ was present. Here, activation was carried out for 2–20 min and concentration of each IXa protein was 400 nM and factor X was 1 μM. Finally, in the fourth regime, Ca^2+ and VIIIa were present. Here, activation was carried out for 15–120 sec and the concentration of each IXa protein was 2 μM, VIIIa was 14 nM, and factor X was 400 nM.
(§3) In all of the above factor X activation experiments, the incubation times chosen were those in which the factor Xa generated was always less than 10 nM. This precautionary measure was taken to prevent activation of factor X by the generated factor Xa (see, e.g., Link. and Castellino, 1982, Arch Biochem. Biophys. 215, 215–221). Further, in those incubation mixtures which contained […], control experiments were also performed in which factor VIIIa was omitted. […] In the presence of factor VIIIa, 10 μM phospholipid was used based upon previous observations (Mathur et al., 1997, supra; van Dieijen et al., 1981, J. Biol. Chem. 256, 3433–3442). The concentrations of factor X selected for each set of reaction conditions are those which are below or at the Km values (van Dieijen et al., supra; Fay and Koshibu, 1998, J Biol. Chem. 273, 19049–19054). In this region of the Michaelis-Menton curve, the rate of formation of factor Xa is proportional to the substrate factor X and therefore to the affinity of the factor IXa enzyme for factor X.
Next, the activation of factor X in a complete intrinsic Tenase system (IXa, Ca^2+, phospholipid, VIIIa) was studied.

[4] = target: T1, factor X; assay: factor X activation by IXa proteins, Ca2+ and VIIIa, no phospholipid; parameters: Normal human plasma factor IX (IXNP) and factor X were isolated as described in Bajaj and Birktoft; from tissue; host or cells: human plasma (factor X); factor VIII obtained from Dr. Leon Hoyer, American Red Cross; details: 14 nM VIIIa, 400 nM factor X
Procedure: as §1, §2, §3

[5] = target: T2, factor VIIIa (Homo sapiens, UniProt P00451); assay: inhibition of Xa generation by active site-blocked (DEGR) IXa proteins, absence of phospholipid (Kd,app for VIIIa); details: absence of phospholipid
T2 construct: purchased Dr. Leon Hoyer (American Red Cross, Rockville, Md.)
T2 sequence (P00451 20-759 limits assumed): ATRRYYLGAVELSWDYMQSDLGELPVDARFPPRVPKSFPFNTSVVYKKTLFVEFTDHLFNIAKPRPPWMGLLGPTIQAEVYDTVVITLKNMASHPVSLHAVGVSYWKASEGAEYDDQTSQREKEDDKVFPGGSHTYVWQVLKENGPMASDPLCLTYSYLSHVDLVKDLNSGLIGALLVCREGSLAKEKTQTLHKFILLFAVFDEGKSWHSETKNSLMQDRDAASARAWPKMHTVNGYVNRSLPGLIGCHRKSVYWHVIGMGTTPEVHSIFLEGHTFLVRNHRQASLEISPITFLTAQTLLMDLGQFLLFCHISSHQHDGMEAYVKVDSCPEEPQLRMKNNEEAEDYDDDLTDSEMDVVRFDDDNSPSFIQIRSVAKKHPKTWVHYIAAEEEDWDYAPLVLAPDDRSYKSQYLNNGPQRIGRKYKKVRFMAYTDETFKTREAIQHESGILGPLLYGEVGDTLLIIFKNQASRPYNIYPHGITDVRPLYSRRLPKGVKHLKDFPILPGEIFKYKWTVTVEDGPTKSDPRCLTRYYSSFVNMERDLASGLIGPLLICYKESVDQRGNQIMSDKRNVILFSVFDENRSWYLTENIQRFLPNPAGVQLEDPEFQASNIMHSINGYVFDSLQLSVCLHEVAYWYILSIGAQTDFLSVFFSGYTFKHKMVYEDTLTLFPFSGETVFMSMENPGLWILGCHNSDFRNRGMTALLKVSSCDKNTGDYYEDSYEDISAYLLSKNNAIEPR
T2 sequence (P00451 1668-2351 limits assumed): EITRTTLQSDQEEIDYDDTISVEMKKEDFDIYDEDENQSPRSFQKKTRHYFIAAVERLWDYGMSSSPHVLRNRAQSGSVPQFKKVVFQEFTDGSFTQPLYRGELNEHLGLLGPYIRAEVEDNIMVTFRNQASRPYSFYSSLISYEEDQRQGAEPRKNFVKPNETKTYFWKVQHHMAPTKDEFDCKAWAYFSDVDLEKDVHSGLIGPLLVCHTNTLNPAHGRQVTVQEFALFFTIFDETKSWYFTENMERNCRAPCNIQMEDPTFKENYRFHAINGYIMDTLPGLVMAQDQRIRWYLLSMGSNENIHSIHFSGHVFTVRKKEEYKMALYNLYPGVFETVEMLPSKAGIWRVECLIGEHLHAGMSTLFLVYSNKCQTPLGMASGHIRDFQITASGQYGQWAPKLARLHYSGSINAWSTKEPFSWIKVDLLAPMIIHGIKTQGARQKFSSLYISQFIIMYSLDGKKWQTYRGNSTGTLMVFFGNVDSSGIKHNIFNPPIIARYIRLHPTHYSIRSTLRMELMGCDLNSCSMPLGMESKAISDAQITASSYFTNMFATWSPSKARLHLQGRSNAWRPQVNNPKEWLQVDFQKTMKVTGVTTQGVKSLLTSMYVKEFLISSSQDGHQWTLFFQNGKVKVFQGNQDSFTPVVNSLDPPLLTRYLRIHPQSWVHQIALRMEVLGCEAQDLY
Procedure: (§4) Apparent Kds of factor VIIIa binding to various active site-blocked factor IXa proteins were determined from inhibition experiments as detailed in Mathur et al., 1997, supra. […] Reactions were carried out for 2 min and the rates of factor X activation were measured as outlined above.
(§5) Various DEGR-ck-inhibited factor IXa proteins were prepared for these experiments as follows. IXNP, IXWT, and each mutant factor IX at 200 μg/ml was activated by factor XIa (2 μg/ml) for 90 min. in TBS, pH 7.4 (0.05 M Tris, 0.15 M NaCl, pH 7.4) containing 5 mM Ca^2+.
(§6) Enzymol. 74, 481–508 given below:
(§7) [formula] where y is the rate of Xa formation in the presence of a given concentration of DEGR-IXa protein represented by x, a is the maximum rate of Xa formation in the absence of DEGR-IXa, and s is the slope factor. Each point was weighted equally and the data were fitted to Equation 1 using the nonlinear regression analysis program obtained from Erithacus Software (GraFit). […] To obtain the Kd,app values for the interaction of DEGR-IXa proteins with factor VIIIa, the following equation was used, as described by Cheng and Prusoff, 1973, Biochem. Pharmacol. 22, 3099–3108 and further discussed by Craig, 1993, Trends Pharmacol. Sci. 6, 68–71.

[6] = target: T2, factor VIIIa; assay: inhibition of Xa generation by active site-blocked (DEGR) IXa proteins, presence of phospholipid (Kd,app for VIIIa); details: presence of phospholipid
Procedure: as §4, §5, §6, §7

T1 sequence (P00742 183-488 limits assumed, one chain of several): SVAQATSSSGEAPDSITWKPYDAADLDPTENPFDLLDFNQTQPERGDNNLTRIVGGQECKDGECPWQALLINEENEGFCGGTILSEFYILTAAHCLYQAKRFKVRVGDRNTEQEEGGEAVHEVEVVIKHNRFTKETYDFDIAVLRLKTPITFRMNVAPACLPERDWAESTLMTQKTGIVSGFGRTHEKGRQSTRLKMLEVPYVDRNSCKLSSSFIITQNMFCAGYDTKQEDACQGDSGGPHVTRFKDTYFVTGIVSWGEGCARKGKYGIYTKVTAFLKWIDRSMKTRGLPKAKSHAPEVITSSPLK
T1 sequence (P00742 41-179 limits assumed, one chain of several): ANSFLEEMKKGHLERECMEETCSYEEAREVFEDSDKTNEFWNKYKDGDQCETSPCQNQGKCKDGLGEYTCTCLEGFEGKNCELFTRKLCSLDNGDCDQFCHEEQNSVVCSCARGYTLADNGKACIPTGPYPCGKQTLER

Substance | relative coagulant activity [1] | coagulant activity as compared to IXaNP [2] | also measured
IXL337I: recombinant factor IX point mutant L337I | ~1% | – | –
IXT335A: recombinant factor IX point mutant T335A | ~40% | – | –
IXR333L: recombinant factor IX point mutant R333L | 0.3% | – | –
IXaWT: factor XIa-activated recombinant wild-type factor IX [reference compound] | – | ~95% | –
IXaR333Q: activated factor IX mutant R333Q | – | ~0.6% | rate of factor X activation at increased VIIIa [3]: ~2.4 nM/min
IXNP: Normal human plasma factor IX | 100% | – | coagulant activity (specific) ([1]; plasma factor IX): 180±10 units/mg
IXD332Y: recombinant factor IX point mutant D332Y | ~2% | – | –
IXahelixVII: activated factor IX chimera with helix 330–338 replaced by factor VII residues | – | not measurable | rate of factor X activation at increased VIIIa [3]: not measurable
IXWT: recombinant wild-type factor IX [reference compound] | ~90% | – | –
IXR338Q: recombinant factor IX point mutant R338Q | ~65% | – | –
IXaL330I: activated factor IX mutant L330I | – | ~7% | X-activation rate, PL-plus system ([3]; 70 pM VIIIa, 0.5 nM IXa, 15 nM X): 0.95 ± 0.07 nM/min; X-activation rate, PL-minus system [4]: 0.94 ± 0.03 nM/min
IXaR338Q: activated factor IX mutant R338Q | – | ~80% | X-activation rate, PL-minus system [4]: 2.22 ± 0.15 nM/min
IXaD332Y: activated factor IX mutant D332Y | – | ~2% | rate of factor X activation at increased VIIIa [3]: ~4.1 nM/min
IXL3301: recombinant factor IX point mutant L330I in helix-330 of protease domain | ~8% | – | –
IXaR333L: activated factor IX mutant R333L | – | ~0.4% | rate of factor X activation at increased VIIIa [3]: ~2.7 nM/min
protein C: Purified human protein C, control protein [reference compound] | – | – | competition with IXa in binding to VIIIa / interaction with VIIIa [5]: neither protein C nor DEGR-activated protein C competed with IXa in binding to VIIIa; competition with IXa in binding to VIIIa / interaction with VIIIa [6]: neither protein C nor DEGR-activated protein C competed with IXa in binding to VIIIa
IXR333Q: recombinant factor IX point mutant R333Q | ~0.5% | – | –
IXaL337I: activated factor IX mutant L337I | – | ~0.8% | rate of factor X activation at increased VIIIa [3]: ~3.2 nM/min
